Reference: PubChem BioAssay AID1259407 (Chemical Carcinogenesis Research Information System (CCRIS), 2018)
The source made the active and inactive calls. No rule for the calls is given here.

Tested on: CCRIS mutagenicity, Ames/micronucleus/aberration tests
Test: CCRIS mutagenicity studies
[1] = Test System: AMES SALMONELLA TYPHIMURIUM, Strain/Indicator: TA98, Metabolic Activation: NONE, Method: STANDARD PLATE
[2] = Test System: AMES SALMONELLA TYPHIMURIUM, Strain/Indicator: TA100, Metabolic Activation: NONE, Method: STANDARD PLATE
[3] = Test System: AMES SALMONELLA TYPHIMURIUM, Strain/Indicator: TA102, Metabolic Activation: NONE, Method: STANDARD PLATE
[4] = Test System: AMES SALMONELLA TYPHIMURIUM, Strain/Indicator: TA1537, Metabolic Activation: NONE, Method: STANDARD PLATE
[5] = Test System: AMES SALMONELLA TYPHIMURIUM, Strain/Indicator: TA98, Metabolic Activation: NONE, Method: PREINCUBATION
[6] = Test System: AMES SALMONELLA TYPHIMURIUM, Strain/Indicator: TA98, Metabolic Activation: RAT, LIVER, S-9, AROCLOR 1254, Method: STANDARD PLATE
[7] = Test System: AMES SALMONELLA TYPHIMURIUM, Strain/Indicator: TA100, Metabolic Activation: NONE, Method: PREINCUBATION
[8] = Test System: AMES SALMONELLA TYPHIMURIUM, Strain/Indicator: TA100, Metabolic Activation: RAT, LIVER, S-9, AROCLOR 1254, Method: STANDARD PLATE

SMILES: C=C(C)C(=O)OCC(O)COc1ccc(C(C)(C)c2ccc(OCC(O)COC(=O)C(=C)C)cc2)cc1 (centres undefined)
- mutagenic call (Test System: AMES SALMONELLA TYPHIMURIUM, Strain/Indicator: TA97A, Metabolic Activation: NONE, Method: STANDARD PLATE): inactive; negative
- mutagenic call (Test System: AMES SALMONELLA TYPHIMURIUM, Strain/Indicator: TA97A, Metabolic Activation: RAT LIVER S-9, PHENOBARBITAL AND BETA-NAPHTHAFLAVONE, Method: STANDARD PLATE): inactive; negative
- mutagenic call [1]: inactive; negative
- mutagenic call (Test System: AMES SALMONELLA TYPHIMURIUM, Strain/Indicator: TA98, Metabolic Activation: RAT LIVER S-9, PHENOBARBITAL AND BETA-NAPHTHAFLAVONE, Method: STANDARD PLATE): inactive; negative
- mutagenic call [2]: inactive; negative
- mutagenic call (Test System: AMES SALMONELLA TYPHIMURIUM, Strain/Indicator: TA100, Metabolic Activation: RAT LIVER S-9, PHENOBARBITAL AND BETA-NAPHTHAFLAVONE, Method: STANDARD PLATE): inactive; negative
- mutagenic call [3]: inactive; negative
- mutagenic call (Test System: AMES SALMONELLA TYPHIMURIUM, Strain/Indicator: TA102, Metabolic Activation: RAT LIVER S-9, PHENOBARBITAL AND BETA-NAPHTHAFLAVONE, Method: STANDARD PLATE): inactive; negative
- mutagenic call (Test System: CHINESE HAMSTER OVARY V-79, Strain/Indicator: V79 (HPRT)/6-THIOGUANINE, Metabolic Activation: NONE): inactive; negative

SMILES: CCCCC(=O)N=c1sn(C(=O)CCCC)c2ccc([N+](=O)[O-])cc12
- mutagenic call (Test System: AMES SALMONELLA TYPHIMURIUM, Strain/Indicator: TA100, Metabolic Activation: S-9, Method: STANDARD PLATE): active; positive

SMILES: Cc1ccc(CN2C3c4ccccc4-c4ccccc4C32)cc1 (centres undefined)
- mutagenic call [2]: active; positive

SMILES: ClCc1c2ccccc2c(CCl)c2ccccc12
- mutagenic call [4]: active; positive

SMILES: O=C(O)c1ccccc1Nc1cccc(C(F)(F)F)c1
- mutagenic call (Test System: AMES SALMONELLA TYPHIMURIUM, Strain/Indicator: TA98, Metabolic Activation: RAT, LIVER, S-9, PCB, Method: STANDARD PLATE): inactive; negative
- mutagenic call (Test System: AMES SALMONELLA TYPHIMURIUM, Strain/Indicator: TA100, Metabolic Activation: RAT, LIVER, S-9, PCB, Method: STANDARD PLATE): inactive; negative
- mutagenic call (Test System: AMES SALMONELLA TYPHIMURIUM, Strain/Indicator: TA1537, Metabolic Activation: RAT, LIVER, S-9, PCB, Method: STANDARD PLATE): inactive; negative
- mutagenic call (Test System: AMES SALMONELLA TYPHIMURIUM, Strain/Indicator: TA1538, Metabolic Activation: RAT, LIVER, S-9, PCB, Method: STANDARD PLATE): inactive; negative
- mutagenic call (Test System: E. COLI, Strain/Indicator: WP2 UVRA, Metabolic Activation: RAT, LIVER, S-9, PCB, Method: STANDARD PLATE): inactive; negative

SMILES: CN(C)c1ccc(-c2ccc(N(C)C)cc2)cc1
- mutagenic call [5]: inactive; negative
- mutagenic call [1]: inactive; negative
- mutagenic call (Test System: AMES SALMONELLA TYPHIMURIUM, Strain/Indicator: TA98, Metabolic Activation: RAT LIVER S-9, AROCLOR 1254, Method: PREINCUBATION): active; positive
- mutagenic call [6]: active; positive
- mutagenic call [7]: inactive; negative
- mutagenic call [2]: inactive; negative
- mutagenic call (Test System: AMES SALMONELLA TYPHIMURIUM, Strain/Indicator: TA100, Metabolic Activation: RAT LIVER S-9, AROCLOR 1254, Method: PREINCUBATION): inactive; negative
- mutagenic call [8]: inactive; negative

SMILES: CN(C)CCNC(=O)c1cc2ccccc2c2cccnc12
- mutagenic call [4]: active; positive

SMILES: O=C(OCCBr)[C@@H](O)[C@H](O)C(=O)OCCBr
- mutagenic call [2]: active; positive
- mutagenic call [8]: active; positive

SMILES: Cn1c([N+](=O)[O-])cnc1C1NC(CO)(CO)CO1 (centres undefined)
- mutagenic call (Test System: AMES SALMONELLA TYPHIMURIUM, Strain/Indicator: TA97, Metabolic Activation: NONE, Method: STANDARD PLATE): active; positive
- mutagenic call (Test System: AMES SALMONELLA TYPHIMURIUM, Strain/Indicator: TA97, Metabolic Activation: RAT, LIVER, S-9, AROCLOR 1254, Method: STANDARD PLATE): active; positive
- mutagenic call [1]: active; positive
- mutagenic call [6]: active; positive
- mutagenic call [2]: active; positive
- mutagenic call [8]: active; positive
- mutagenic call [3]: active; positive
- mutagenic call (Test System: AMES SALMONELLA TYPHIMURIUM, Strain/Indicator: TA102, Metabolic Activation: RAT, LIVER, S-9, AROCLOR 1254, Method: STANDARD PLATE): active; positive

SMILES: OCc1ccc(-c2nccc3c2[nH]c2ccccc23)o1
- mutagenic call [7]: active; positive

SMILES: O=S(=O)(O)N(S(=O)(=O)O)S(=O)(=O)O
- mutagenic call (Test System: AMES SALMONELLA TYPHIMURIUM, Strain/Indicator: G46, Metabolic Activation: RAT, LIVER, S-9, AROCLOR 1254, Method: STANDARD PLATE): inactive; negative
- mutagenic call [8]: inactive; negative

SMILES: O=S1(=O)c2cccc3ccc4c5ccccc5cc1c4c23
- mutagenic call [1]: active; positive
- mutagenic call (Test System: AMES SALMONELLA TYPHIMURIUM, Strain/Indicator: TA98, Metabolic Activation: RAT, LIVER, S-9, AROCLOR 1254 (10%), Method: STANDARD PLATE): active; positive
- mutagenic call [2]: active; positive
- mutagenic call (Test System: AMES SALMONELLA TYPHIMURIUM, Strain/Indicator: TA100, Metabolic Activation: RAT, LIVER, S-9, AROCLOR 1254 (10%), Method: STANDARD PLATE): active; positive

SMILES: CCCOS(=O)(=O)c1ccccc1
- mutagenic call (End Point: IN VITRO MICRONUCLEUS, Test System: MOUSE LYMPHOMA L5178Y CELLS, Metabolic Activation: NONE): inactive; negative; positive only at highly/excessively cytotoxic doses
- mutagenic call (End Point: IN VITRO MICRONUCLEUS, Test System: MOUSE LYMPHOMA L5178Y CELLS, Metabolic Activation: RAT, LIVER, S-9): inactive; negative; authors report results as weakly positive
- mutagenic call [2]: active; positive
- mutagenic call (Test System: AMES SALMONELLA TYPHIMURIUM, Strain/Indicator: TA100, Metabolic Activation: RAT, LIVER, S-9, Method: STANDARD PLATE): active; positive

SMILES: Nc1nc2ncc(CNc3ccc(C(=O)N[C@@H](CCC(=O)O)C(=O)O)cc3)nc2c(=O)[nH]1
- mutagenic call (Test System: AMES SALMONELLA TYPHIMURIUM, Strain/Indicator: TA97A, Metabolic Activation: NONE, Method: PREINCUBATION): inactive; negative
- mutagenic call (Test System: AMES SALMONELLA TYPHIMURIUM, Strain/Indicator: TA97A, Metabolic Activation: RAT, LIVER, S-9, AROCLOR 1254, Method: PREINCUBATION): inactive; negative
- mutagenic call (Test System: AMES SALMONELLA TYPHIMURIUM, Strain/Indicator: TA102, Metabolic Activation: NONE, Method: PREINCUBATION): inactive; negative
- mutagenic call (Test System: AMES SALMONELLA TYPHIMURIUM, Strain/Indicator: TA102, Metabolic Activation: RAT, LIVER, S-9, AROCLOR 1254, Method: PREINCUBATION): inactive; negative

SMILES: Cc1ccc(NN=NCc2ccccc2)cc1
- mutagenic call [5]: active; positive
- mutagenic call (Test System: AMES SALMONELLA TYPHIMURIUM, Strain/Indicator: TA98, Metabolic Activation: RAT, LIVER, S-9, PCB, Method: PREINCUBATION): active; positive
- mutagenic call [7]: active; positive
- mutagenic call (Test System: AMES SALMONELLA TYPHIMURIUM, Strain/Indicator: TA100, Metabolic Activation: RAT, LIVER, S-9, PCB, Method: PREINCUBATION): active; positive

SMILES: O=[N+]([O-])c1ccc2[nH]c3c([N+](=O)[O-])cccc3c2c1
- mutagenic call (Test System: AMES SALMONELLA TYPHIMURIUM, Strain/Indicator: TA98(NR), Metabolic Activation: NONE, Method: STANDARD PLATE): active; positive
- mutagenic call (Test System: AMES SALMONELLA TYPHIMURIUM, Strain/Indicator: TA98(NR), Metabolic Activation: RAT, LIVER, S-9, AROCLOR 1254, Method: STANDARD PLATE): active; positive
- mutagenic call [1]: active; positive
- mutagenic call [6]: active; positive
